Test results from PubChem BioAssay AID1259407 (Chemical Carcinogenesis Research Information System (CCRIS), 2018).
Entries after “also recorded” stand apart in the source; their conditions may differ. Activity calls are given as the source filed them. How the calls were made is not given here.

Tested on: CCRIS mutagenicity, Ames/micronucleus/aberration tests
Experiment: CCRIS mutagenicity studies

## COc1cc2c(c3oc(=O)c4c(c13)CCC4=O)[C@@H]1C=CO[C@@H]1O2
Test System: AMES SALMONELLA TYPHIMURIUM, Strain/Indicator: TA100, Metabolic Activation: MOUSE, LIVER, MICROSOMES, BENZO[E]PYRENE AND TCDD, Method: STANDARD PLATE
  mutagenic call: active; positive
Test System: AMES SALMONELLA TYPHIMURIUM, Strain/Indicator: TA100, Metabolic Activation: RABBIT, LUNG, CLARA CELL-RICH FRACTION, Method: PREINCUBATION
  mutagenic call: active; positive
Test System: AMES SALMONELLA TYPHIMURIUM, Strain/Indicator: TA100, Metabolic Activation: RAT LIVER S-9, DELOR 103, Method: STANDARD PLATE
  mutagenic call: active; positive
Test System: AMES SALMONELLA TYPHIMURIUM, Strain/Indicator: TA100, Metabolic Activation: RAT LIVER S-9, DELOREM 103, Method: STANDARD PLATE
  mutagenic call: active; positive
Test System: AMES SALMONELLA TYPHIMURIUM, Strain/Indicator: TA100, Metabolic Activation: RAT, LIVER, MICROSOMES, PHENOBARBITAL, Method: STANDARD PLATE
  mutagenic call: active; positive
Test System: AMES SALMONELLA TYPHIMURIUM, Strain/Indicator: TA100, Metabolic Activation: RAT, LIVER, S-9, ACRYLAMIDE, Method: STANDARD PLATE
  mutagenic call: active; positive
Test System: AMES SALMONELLA TYPHIMURIUM, Strain/Indicator: TA100, Metabolic Activation: RAT, LIVER, S-9, AROCLOR 1254, Method: MICROSUSPENSION
  mutagenic call: active; positive
Test System: AMES SALMONELLA TYPHIMURIUM, Strain/Indicator: TA100, Metabolic Activation: RAT, LIVER, S-9, AROCLOR 1254, Method: PREINCUBATION
  mutagenic call: active; positive
Test System: AMES SALMONELLA TYPHIMURIUM, Strain/Indicator: TA100, Metabolic Activation: RAT, LIVER, S-9, AROCLOR 1254, Method: STANDARD PLATE
  mutagenic call: active; positive
Test System: AMES SALMONELLA TYPHIMURIUM, Strain/Indicator: TA100, Metabolic Activation: RAT, LIVER, S-9, PHENOBARBITAL, Method: PREINCUBATION
  mutagenic call: active; positive
Test System: AMES SALMONELLA TYPHIMURIUM, Strain/Indicator: TA100, Metabolic Activation: RAT, LIVER, S-9, PHENOBARBITAL, Method: STANDARD PLATE
  mutagenic call: active; positive
Test System: AMES SALMONELLA TYPHIMURIUM, Strain/Indicator: TA1538, Metabolic Activation: RAT, LIVER, S-9, AROCLOR 1254, Method: STANDARD PLATE
  mutagenic call: active; positive
Test System: Ames Salmonella typhimurium, Strain/Indicator: TA98, Metabolic Activation: Rat, Liver, S-9, Aroclor 1254, Method: Preincubation
  mutagenic call: active; positive (decrease in mutagenicity when 0.99-15.90 mg/plate of chloroform extrac; also recorded: active; positive (decrease in mutagenicity when 0.46-7.30 mg/plate of methanol extract o
Test System: Ames Salmonella typhimurium, Strain/Indicator: TA100, Metabolic Activation: Rat, Liver, S-9, Aroclor 1254, Method: Preincubation
  mutagenic call: active; positive (decrease in mutagenicity when 0.46-7.30 mg/plate of methanol extract o
Test System: CHINESE HAMSTER V-79, Strain/Indicator: V-79/6-THIOGUANINE, Metabolic Activation: NONE, Method: STANDARD PLATE
  mutagenic call: inactive; negative
Test System: CHINESE HAMSTER V-79, Strain/Indicator: V-79/6-THIOGUANINE, Metabolic Activation: RAT, HEPATOCYTES, BUTYLATED HYDROXYANISOLE, Method: STANDARD PLATE
  mutagenic call: active; positive
Test System: CHINESE HAMSTER V-79, Strain/Indicator: V-79/6-THIOGUANINE, Metabolic Activation: RAT, HEPATOCYTES, Method: STANDARD PLATE
  mutagenic call: active; positive
Test System: CHINESE HAMSTER V-79, Strain/Indicator: V-79/6-THIOGUANINE, Metabolic Activation: RAT, LIVER, S-9, PHENOBARBITAL, Method: STANDARD PLATE
  mutagenic call: active; positive
Test System: CHINESE HAMSTER V-79, Strain/Indicator: V-79/OUABAIN, Metabolic Activation: CELL-MEDIATED, Method: STANDARD PLATE
  mutagenic call: active; positive
Test System: CHINESE HAMSTER V-79, Strain/Indicator: V-79/OUABAIN, Metabolic Activation: NONE, Method: STANDARD PLATE
  mutagenic call: inactive; negative
Test System: CHINESE HAMSTER V-79, Strain/Indicator: V-79/OUABAIN, Metabolic Activation: RAT, HEPATOCYTES, BUTYLATED HYDROXYANISOLE, Method: STANDARD PLATE
  mutagenic call: active; positive
Test System: CHINESE HAMSTER V-79, Strain/Indicator: V-79/OUABAIN, Metabolic Activation: RAT, HEPATOCYTES, Method: STANDARD PLATE
  mutagenic call: active; positive
Test System: UDS GUINEA PIG HEPATOCYTES, Strain/Indicator: THY INCORP, Metabolic Activation: NONE, Method: AUTORADIOGRAPHY
  mutagenic call: active; positive
Test System: UDS HUMAN CELLS, Strain/Indicator: THY INCORP (NON-S-PHASE), Metabolic Activation: RAT, LIVER, S-9, PHENOBARBITAL, Method: LIQUID SCINTILLATION COUNTING
  mutagenic call: active; positive
Test System: UDS HUMAN FIBROBLASTS, Strain/Indicator: THY INCORP (NON-S-PHASE), Metabolic Activation: MOUSE, LIVER, S-9, Method: AUTORADIOGRAPHY
  mutagenic call: active; positive
Test System: UDS HUMAN FIBROBLASTS, Strain/Indicator: THY INCORP (NON-S-PHASE), Metabolic Activation: NONE, Method: AUTORADIOGRAPHY
  mutagenic call: active; positive
Test System: UDS HUMAN FIBROBLASTS, Strain/Indicator: THY INCORP (NON-S-PHASE), Metabolic Activation: NONE, Method: LIQUID SCINTILLATION COUNTING
  mutagenic call: active; positive
Test System: UDS HUMAN HEPATOCYTES, Strain/Indicator: THY INCORP, Metabolic Activation: NONE, Method: AUTORADIOGRAPHY
  mutagenic call: active; positive
Test System: UDS MONKEY HEPATOCYTES, Strain/Indicator: THY INCORP, Metabolic Activation: NONE, Method: AUTORADIOGRAPHY
  mutagenic call: active; positive
Test System: UDS RAT HEPATOCYTES, Strain/Indicator: BROMODEOXYURIDINE INCORP, Metabolic Activation: NONE, Method: FLOW CYTOMETRIC ANALYSIS
  mutagenic call: active; positive
Test System: UDS RAT HEPATOCYTES, Strain/Indicator: THY INCORP, Metabolic Activation: AROCLOR 1254, Method: AUTORADIOGRAPHY
  mutagenic call: active; positive
Test System: UDS RAT HEPATOCYTES, Strain/Indicator: THY INCORP, Metabolic Activation: NONE, Method: AUTORADIOGRAPHY
  mutagenic call: active; positive
Test System: UDS RAT HEPATOCYTES, Strain/Indicator: THY INCORP, Metabolic Activation: NONE, Method: LIQUID SCINTILLATION COUNTING
  mutagenic call: active; positive
Test System: UDS RODENT HEPATOCYTES, Strain/Indicator: THY INCORP (NON-S-PHASE), Method: AUTORADIOGRAPHY
  mutagenic call: active; positive
Test System: UDS RODENT HEPATOCYTES, Strain/Indicator: THY INCORP (NON-S-PHASE), Method: LIQUID SCINTILLATION COUNTING
  mutagenic call: active; positive
Test System: UDS RODENT PRIMARY CELLS, Strain/Indicator: THY INCORP (NON-S-PHASE), Metabolic Activation: NONE, Method: AUTORADIOGRAPHY
  mutagenic call: active; positive
